Key:
[1] = system: Human diploid fibroblasts (HCA cells); assay: inhibition of senescence, β-galactosidase staining; format: cell-based; settings: test compounds about 50 μM at each passage; for Senescent Cells (%) HCA25: passage 25; for Senescent Cells (%) HCA80: passage 80
Procedure: Inhibition of senescence by several of the 6,9-disubstituted purine derivatives of this invention was determined; kinetin was also evaluated as a control. […] The medium used for the cell cultivation was removed, the cells were washed twice in PBS, and fixed in 2-3 ml of fixing solution comprised of a 2% formaldehyde and 0.2% glutaraldehyde in PBS. The cells were incubated at room temperature for 5 minutes, and then washed twice with PBS. The cells were subsequently incubated at 37° C. (without CO2) for 1 to 16 hours in 2-3 ml of the solution comprising potassium ferricyanide (5 mM), potassium ferrocyanide (5 mM), MgCl2 (2 mM), X-gal (5-bromo-4-chloro-3-indolyl-β-D-galactopyranoside) (1 mg/ml), in citric/phosphate buffer (pH 6.0). The test compounds (about 50 μM) were added to the medium at each passage. […] In this experiment, only senescent cells were stained blue due to the action of β-galactosidase on the substrate.

[2] = system: breast carcinoma MCF-7; assay: in vitro cytotoxic activity, Calcein AM microtiter assay; format: cell-based; settings: Homo sapiens, MCF7; 72 hours; highest concentration 166.7 μM
Procedure: (§1) In vitro cytotoxic activity of several of the 6,9-disubstituted purine derivatives of this invention was determined using a microtiter assay with Calcein AM and a panel of cell lines of different histogenetic and species origin; kinetin was also examined as a control. Because only metabolically active cells cleave Calcein AM (tetraacetoxymethyl ester of calcein), the intracellular concentration of calcein corresponds to the number of vital cells in the culture.
(§2) The following cell lines were used: human osteosarcoma (HOS); breast carcinoma MCF-7; human myeloid leukemia K-562; and mouse fibroblasts NIH3T3. The cells were maintained in Nunc/Corning 80 cm^2 plastic tissue culture flasks and cultured in cell culture medium (DMEM with 5 g/l glucose, 2 mM glutamine, 100 U/ml penicillin, 100 μg/ml streptomycin, 10% fetal calf serum, and sodium bicarbonate).
(§3) The cell suspensions were prepared and diluted according to the particular cell type and the expected target cell density (2.500-30.000 cells per well based on cell growth characteristics) were added by pipette (80 μl) into 96/well microtiter plates. Inoculates were allowed a pre-incubation period of 24 hours at 37° C. and 5% CO2 for stabilization. Four-fold dilutions of the intended test concentration were added at time zero in 20 μl aliquots to the microtiter plate wells. The test compounds were generally evaluated at six 4-fold dilutions. The highest well concentration used in the present study was 166.7 μM. All samples were examined in triplicates. Incubations of cells with the tested compounds was for 72 hours at 37° C., in 5% CO2 atmosphere and 100% humidity. At the end of the incubation period, Calcein AM was added to a final concentration of 1 μg/ml incubated for 1 hour. Fluorescence intensity (FI) was measured with a Labsystem FIA Reader Fluoroscan Ascent (UK). The cell survival (GI50) was calculated using the following equation: GI50=([…])/(mean FIcontrol well−mean FIblank)×100%. The GI50 value, the drug concentration lethal to 50% of the cells, was calculated from the obtained dose response curves.

[3] = system: human osteosarcoma (HOS); assay: as above; format: cell-based; settings: 72 hours, highest concentration 166.7 μM
Procedure: as §1, §2, §3

[4] = system: mouse fibroblasts NIH3T3; assay: as above; format: cell-based; settings: NIH3T3, 72 hours, highest concentration 166.7 μM, read-out: GI50 NIH-3T3
Procedure: as §1, §2, §3

[5] = system: Human forskin fibroblasts (cell line BJ); assay: in vitro cytotoxic activity, MTT assay; format: cell-based; settings: 72 hours, BJ fibroblasts at middle passage
Procedure: In vitro cytotoxic activity of several of the 6,9-disubstituted purine derivatives of this invention against human diploid fibroblasts was determined by standard MTT assay optimized for 96-well plates. The assay is based on spectrofotometric measurement of the product of metabolic conversion of MTT by mitochondria of living cells.
Human forskin fibroblasts (cell line BJ) at middle passage were maintained in 75 cm^2 plastic tissue culture flasks and cultured in cell culture medium (DMEM with 5 g/l glucose, 2 mM glutamine, 100 U/ml penicillin, 100 μg/ml streptomycin, 10% fetal calf serum, and sodium bicarbonate).
About 5,000 cells were seeded per well of the 96-well plate. After 24 hours the cell culture medium was replaced with the cell culture medium containing a test compound. The test compounds were evaluated at six 2-fold dilutions. The highest concentration used in the present study was usually 200 μM. In the case of compounds with limited solubility in the culture medium the highest concentration was adjusted. Every test compound was examined in five replicates. Cells with the test compounds were incubated for 72 hours at 37° C. in 5% CO2 atmosphere and 100% humidity. At the end of the incubation period, the culture medium was replaced with the cell culture medium containing MTT (0.5 mg/ml) and cells were incubated for another 3 hours. The formazan formed was solubilized by DMSO and absorbance at 570 nm was measured. Ability of the tested compounds to inhibit MTT reducing activity of the cells was calculated as IC=(Acompound exposed well−mean Ablank)/(mean Acontrol well−meanAblank)×100%. IC10, the drug concentration causing 10% decrease in MTT reducing activity, was calculated from the obtained dose response curves.

[6] = system: Rat C6 glioma (ATCC No. CCL107); assay: anti-inflammatory activity: isoproterenol-induced intracellular cAMP synthesis; format: cell-based; settings: cAMP after 30 min with (−)-isoproterenol; for IC50: Rattus norvegicus, C6 glioma, 0.5 h, read-out: Anti-inflammatory Activity I50
Procedure: Anti-inflammatory activity of several of the 6,9-disubstituted purine derivatives of this invention was determined; kinetin was also evaluated as a control. Rat C6 glioma (ATCC No. CCL107) was cultivated in monolayer in serum-free chemically defined medium containing Ham's F10/minimal essential medium (1:1 v/v), 2 mM L-glutamine, 1% (v/v) minimal essential medium vitamins (100×), 1% (v/v) minimal essential medium nonessential amino acids (100×), 100 U/ml penicillin, […], and 30 nM sodium selenite. Incubation was performed at 37° C. in a humidified atmosphere. The assays were performed in the logaritmic growth phase at a density of 2.5×10^5 cells/cm^2. Intracellular cAMP synthesis was induced by addition of 5 mM (−)-isoproterenol; various amounts of test compounds were added at the same time as the (−)-isoproterenol. After 30 min incubation at 37° C., the medium was removed and the cellular amount of cAMP was determined using the cAMP-enzyme immunoassay kit from Amersham. The I50 value was determined from a dose-response curve in duplicate.

| melting point [°C] | SMILES | Senescent Cells (%) HCA50 [1] [%] | Senescent Cells (%) HCA25 [1] [%] | Senescent Cells (%) HCA80 [1] [%] | IC10 (concentration causing 10% decrease in MTT reducing activity) [5] [µM] | further results |
| --- | --- | --- | --- | --- | --- | --- |
| 142 to 143 | COc1ccc(CNc2ncnc3c2ncn3C2CCCCO2)c(OC)c1OC (centres unmarked) [6-(2,3,4-trimethoxybenzylamino)-9-(2-tetrahydropyranyl)purine] | 5 | 4 | 31 | – | – |
| – | COc1cccc(CNc2ncnc3c2ncn3C2CCCCO2)c1OC (centres unmarked) [6-(2,3-dimethoxybenzylamino)-9-(2-tetrahydropyranyl)purine] | – | – | – | – | GI50 [2]: > 167 µM; GI50 [3]: > 167 µM; GI50 [4]: > 167 µM |
| – | COc1cc(OC)c(OC)cc1CNc1ncnc2c1ncn2C1CCCCO1 (centres unmarked) [6-(2,4,5-trimethoxybenzylamino)-9-(2-tetrahydropyranyl)purine] | – | – | – | >200 | – |
| – | COc1cc(OC)c(OC)cc1Nc1ncnc2c1ncn2C1CCCCO1 (centres unmarked) [6-(2,4,5-trimethoxyphenylamino)-9-(2-tetrahydropyranyl)purine] | 4 | 5 | 25 | – | – |
| – | COc1cc(OC)c(CNc2ncnc3c2ncn3C2CCCCO2)c(OC)c1 (centres unmarked) [6-(2,4,6-trimethoxybenzylamino)-9-(2-tetrahydropyranyl)purine] | – | – | – | >50 | – |
| – | COc1ccc(CNc2ncnc3c2ncn3C2CCCCO2)c(OC)c1 (centres unmarked) [6-(2,4-dimethoxybenzylamino)-9-(2-tetrahydropyranyl)purine] | 6 | 4 | 25 | >25 | – |
| – | COc1ccc(Nc2ncnc3c2ncn3C2CCCCO2)c(OC)c1 (centres unmarked) [6-(2,4-dimethoxyphenylamino)-9-(2-tetrahydropyranyl)purine] | 4 | 4 | 29 | – | – |
| 106 to 108 | COc1ccccc1CNc1ncnc2c1ncn2C1CCCCO1 (centres unmarked) [6-(2-methoxybenzylamino)-9-(2-tetrahydropyranyl)purine] | 6 | 4 | 22 | – | – |
| – | COc1cc(CNc2ncnc3c2ncn3C2CCCCO2)cc(OC)c1OC (centres unmarked) [6-(3,4,5-trimethoxybenzylamino)-9-(2-tetrahydropyranyl)purine] | – | – | – | – | IC10 (concentration causing 10% decrease in MTT reducing activity) ([5]; highest tested concentration 100 µmol/l): >100 µM; IC10 (concentration causing 10% decrease in MTT reducing activity) ([5]; highest tested concentration 200 µmol/l): >200 µM |
| – | COc1ccc(CNc2ncnc3c2ncn3C2CCCCO2)cc1OC (centres unmarked) [6-(3,4-dimethoxybenzylamino)-9-(2-tetrahydropyranyl)purine] | – | – | – | >200 | – |
| – | COc1ccc(Nc2ncnc3c2ncn3C2CCCCO2)cc1OC (centres unmarked) [6-(3,4-dimethoxyphenylamino)-9-(2-tetrahydropyranyl)purine] | 7 | 5 | 28 | – | – |
| – | COc1cc(CNc2ncnc3c2ncn3C2CCCCO2)cc(OC)c1 (centres unmarked) [6-(3,5-dimethoxybenzylamino)-9-(2-tetrahydropyranyl)purine] | – | – | – | >200 | GI50 [2]: > 167 µM; GI50 [3]: > 167 µM; GI50 [4]: > 167 µM; IC50 [6]: 11 µM; Anti-inflammatory Activity Effect [6]: Inhibition |
| 87 to 88 | COc1cccc(CNc2ncnc3c2ncn3C2CCCO2)c1 (centres unmarked) [6-(3-methoxybenzylamino)-9-(2-tetrahydrofuranyl)purine] | – | – | – | – | GI50 [2]: > 167 µM; GI50 [3]: > 167 µM; GI50 [4]: > 167 µM |
| 134 to 135 | COc1cccc(CNc2ncnc3c2ncn3C2CCCCO2)c1 (centres unmarked) [6-(3-methoxybenzylamino)-9-(2-tetrahydropyranyl)purine] | 5 | 5 | 24 | >100 | IC50 [6]: 7 µM; Anti-inflammatory Activity Effect [6]: Inhibition |
| 182 to 183 | COc1ccc(CNc2ncnc3c2ncn3C2CCCO2)cc1 (centres unmarked) [6-(4-methoxybenzylamino)-9-(2-tetrahydrofuranyl)purine] | – | – | – | – | GI50 [2]: > 167 µM; GI50 [3]: > 167 µM; GI50 [4]: > 167 µM |
| 128 to 129 | c1coc(CNc2ncnc3c2ncn3C2CCCO2)c1 (centres unmarked) [6-furfurylamino-9-(2-tetrahydrofuranyl)purine] | 4 | 3 | 12 | >200 | – |
| – | c1ccc(Nc2ncnc3c2ncn3C2CCCCO2)cc1 (centres unmarked) [6-phenylamino-9-(2-tetrahydropyranyl)purine] | – | – | – | – | IC50 [6]: 45 µM; Anti-inflammatory Activity Effect [6]: Inhibition |
| 97 to 99 | COc1ccccc1CNc1ncnc2c1ncn2C1CCCO1 (centres unmarked) [Example 8, 6-(2-methoxybenzylamino)-9-(2-tetrahydrofuranyl)purine] | – | – | – | – | – |
| 150 to 151 | COc1ccc(Nc2ncnc3c2ncn3C2CCCCO2)cc1 (centres unmarked) [Example 10, 6-(4-methoxyphenylamino)-9-(2-tetrahydropyranyl)purine] | – | – | – | – | – |
| 150 to 152 | COc1ccc(OC)c(CNc2ncnc3c2ncn3C2CCCCO2)c1 (centres unmarked) [Example 12, 6-(2,5-dimethoxybenzylamino)-9-(2-tetrahydropyranyl)purine] | – | – | – | – | – |
| 103 to 104 | COc1ccc(OC)c(CNc2ncnc3c2ncn3C2CCCO2)c1 (centres unmarked) [Example 13, 6-(2,5-dimethoxybenzylamino)-9-(2-tetrahydrofuranyl)purine] | – | – | – | – | – |
| 140 to 141 | COc1ccc(CNc2ncnc3c2ncn3C2CCCO2)c(OC)c1OC (centres unmarked) [Example 15, 6-(2,3,4-trimethoxybenzylamino)-9-(2-tetrahydrofuranyl)purine] | – | – | – | – | – |

Reference: patent publication US20130072505A1, “6,9-Disubstituted Purine Derivatives and Their Use for Treating Skin” (priority 2006, published 2013)
